Where a name gives a salt, the structure may show the parent alone. Read-outs that look alike come from different tables or passages of the source. A value given as a limit tells only on which side of the number the result lay.

Consider eight molecules from patent US6416735B1 (priority 1999, dated 2002).

One data set concerns the target α7 nAChR (Rattus norvegicus, UniProt Q05941). In words: biochemical. The class given is binding.
For data set [1] the following is noted: in vivo; cited from earlier work.
The next data set concerns the target α4β2 nAChRs (Rattus norvegicus, UniProt P09483+P12390). In words: biochemical. It counts as binding.
Setting [2] is: read-out: KI, inhibition of [^125I]Iodo-MLA binding.

Sequence of α7 nAChR (Q05941 23-502): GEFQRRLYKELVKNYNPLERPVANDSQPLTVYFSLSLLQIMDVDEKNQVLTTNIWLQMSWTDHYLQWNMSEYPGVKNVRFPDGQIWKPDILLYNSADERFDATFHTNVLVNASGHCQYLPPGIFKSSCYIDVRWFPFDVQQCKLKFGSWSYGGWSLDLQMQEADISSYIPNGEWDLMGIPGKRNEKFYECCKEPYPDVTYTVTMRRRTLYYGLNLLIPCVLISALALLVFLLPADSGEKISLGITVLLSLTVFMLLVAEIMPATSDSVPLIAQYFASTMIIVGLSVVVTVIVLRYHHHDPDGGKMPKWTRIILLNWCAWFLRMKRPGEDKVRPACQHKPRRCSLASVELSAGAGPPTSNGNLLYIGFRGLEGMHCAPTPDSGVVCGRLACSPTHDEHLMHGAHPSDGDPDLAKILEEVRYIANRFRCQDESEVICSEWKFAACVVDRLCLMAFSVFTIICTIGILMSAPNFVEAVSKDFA
Sequence of α4β2 nAChRs (P12390 25-500): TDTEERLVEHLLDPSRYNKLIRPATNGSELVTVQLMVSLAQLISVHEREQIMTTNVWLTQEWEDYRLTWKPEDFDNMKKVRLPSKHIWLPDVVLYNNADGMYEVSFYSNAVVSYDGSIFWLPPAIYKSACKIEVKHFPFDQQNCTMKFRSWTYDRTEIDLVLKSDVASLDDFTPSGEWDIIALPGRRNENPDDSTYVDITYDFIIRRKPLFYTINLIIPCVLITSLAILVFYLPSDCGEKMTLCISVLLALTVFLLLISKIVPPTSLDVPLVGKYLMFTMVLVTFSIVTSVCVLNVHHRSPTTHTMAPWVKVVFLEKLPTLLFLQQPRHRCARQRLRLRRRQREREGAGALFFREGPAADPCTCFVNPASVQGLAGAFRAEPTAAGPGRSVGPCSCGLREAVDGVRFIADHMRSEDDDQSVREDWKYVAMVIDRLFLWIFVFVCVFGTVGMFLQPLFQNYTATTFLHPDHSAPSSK
Sequence of α4β2 nAChRs (P09483 31-630): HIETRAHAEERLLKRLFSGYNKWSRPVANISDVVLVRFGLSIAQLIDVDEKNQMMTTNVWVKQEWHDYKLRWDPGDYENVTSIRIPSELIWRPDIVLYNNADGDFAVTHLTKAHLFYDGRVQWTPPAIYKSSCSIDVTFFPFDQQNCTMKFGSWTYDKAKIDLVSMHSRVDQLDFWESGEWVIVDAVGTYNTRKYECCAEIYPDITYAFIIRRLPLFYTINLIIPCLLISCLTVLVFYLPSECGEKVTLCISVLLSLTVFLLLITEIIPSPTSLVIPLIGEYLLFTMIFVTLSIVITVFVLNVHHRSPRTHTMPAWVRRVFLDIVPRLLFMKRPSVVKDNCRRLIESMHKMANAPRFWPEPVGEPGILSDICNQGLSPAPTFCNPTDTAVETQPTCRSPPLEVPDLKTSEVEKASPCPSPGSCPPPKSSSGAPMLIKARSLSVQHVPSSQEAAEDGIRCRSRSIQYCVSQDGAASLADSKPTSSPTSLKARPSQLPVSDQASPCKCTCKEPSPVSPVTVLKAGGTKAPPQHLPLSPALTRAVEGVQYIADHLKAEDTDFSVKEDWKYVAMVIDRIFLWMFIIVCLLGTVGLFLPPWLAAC

As to `CN1CCCC1c1cccnc1` (single isomer, unassigned; (-)) [(-)-Nicotine], on α7 nAChR, the “displacing [^125I]iodo-MLA (in words)” value was “weak or ineffective”.
As to α-Bungarotoxin, the “Ki for displacing [^125I]iodo-MLA (in words)” value at α7 nAChR is on record as “low nanomolar range”. The Ki (commonly the equilibrium dissociation constant of an inhibitor or competing ligand from its target) on α7 nAChR (setting [2]) is 2 ± 0.1 nM. In data set [1], the “crossing of the blood-brain barrier” value was “does not cross the blood-brain barrier”.
`C(=Cc1ccccc1)C=C1CCCN=C1c1cccnc1` [3-Cinnamylidene-anabasine]: on α7 nAChR (setting [2]), the Ki was found to be 15.3 ± 2 nM.
As to `CNC1(C)C2CCC(C2)C1(C)C` (stereo not shown) [Mecamylamine], on α7 nAChR, the Ki was over 10000 nM and the “displacing [^125I]iodo-MLA (in words)” value was “weak or ineffective”.
Regarding `CCN1C[C@]2(COC(=O)c3ccccc3N3C(=O)C[C@H](C)C3=O)CC[C@H](OC)[C@@]34[C@@H]5C[C@H]6[C@H](OC)[C@@H]5[C@](O)(C[C@@H]6OC)[C@@](O)([C@@H](OC)[C@H]23)[C@@H]14` [MLA, Methyllycaconitine], in data set [1], the “crossing of the blood-brain barrier” value was “crosses the blood-brain barrier”.
As to `CO[C@H]1CC=C2CCN3CCC4=C(CC(=O)OC4)[C@]23C1` [Dihydro-β-erythroidine], the “displacing [^125I]iodo-MLA (in words)” value at α7 nAChR is “weak or ineffective”. For the same molecule, the Ki on α7 nAChR (setting [2]) is over 10000 nM.
Turning to `CCN1CC2(COC(=O)c3cc(I)ccc3N3C(=O)CC(C)C3=O)CCC(OC)C34C5CC6C(OC)CC(O)(C5C6OC)C(O)(C(OC)C23)C14` (stereo not shown) (as salt: citrate) [iodo-MLA, Iodo-methyllycaconitine], the melting point (in general, the temperature of the solid-liquid transition) fell in the range of 115 to 116 °C.
On to `CCN1CC2(COC(=O)c3cc(I)ccc3N3C(=O)CC(C)C3=O)CCC(OC)C34C5CC6C(OC)CC(O)(C5C6OC)C(O)(C(OC)C23)C14` (stereo not shown) [iodo-MLA, Iodo-methyllycaconitine], for which, on α4β2 nAChRs, the Ki was over 1000 nM and the “affinity at α4β2 nAChRs (in words)” value was “poor affinity”.
